Patent US12527327B2, “High hyaluronate multi-purpose disinfection solutions for ophthalmic applications” (CIS BIOPHARMA AG, priority 2019, dated 2026)

Experiment: XTT cytotoxicity assay according to ISO 10993
Settings: mouse
From the text: A larger scale batch (100 Liter) of Formulation E was further evaluated in more detail with an XTT test according to ISO 10993, published by the International Organization for Standardization: “Biological Evaluation of Medical Devices”, Part 1: “Evaluation and testing within a risk management process”, 2018, Part 5: “Tests for in vitro cytotoxicity”, 2009 using a valuated method from the ICCR-Roßdorf GmbH (Germany) and a Xenometrix test kit. With the XTT assay, cell proliferation and viability as well as the mitochondrial metabolic competence of the cells after treatment with a test item is determined […]. The XTT test is based on the cleavage of the yellow tetrazolium salt XTT [_(sodium 3′-(1-phenylaminocarbonyl)-(3,4-tetrazolium)-bis-(4-methoxy-6-nitro)-benzenesulfonic acid hydrate)] to form an orange water soluble formazan dye by dehydrogenase activity in active mitochondria. This method was first described 1988 by SCUDIERO et al.
In brief, the potential cytotoxic effect was evaluated with a dilution series of formulation E in complete medium [RPMI 1640 medium (including glutamax), supplemented with 10% FCS, 1 mM sodium pyruvate, and 100 units/mL penicillin, and 100 μg/mL streptomycin] resulting in the following end concentrations 39.1 μg/mL, 78.1 μg/mL, 156 μg/mL, 313 μg/mL, 625 μg/mL, 1250 μg/mL; 2500 μg/mL, 5000 μg/mL. Subsequently the effect of the solution was examined after 24±1 h treatment time on prior prepared mouse L929 cell line (supplied by DSMZ, 38124 Braunschweig, Germany). In parallel several controls were tested as well:
Medium Control=Complete medium; Solvent control=Complete medium, Positive control=Sodium dodecyl sulfate (SDS; purity: ≥99%); Solvent=deionized water, diluted with complete medium to a ratio of 1:10 (v/v). The positive control was tested in 8 concentrations in a range from 3.1-250 μg/mL. Solvent control for the positive control=Complete medium and 10% (v/v) deionized water.
At the end of the incubation period, 50 μL of the XTT labelling mixture (Xenometrix, Allschwil, Switzerland) were added to each well. The cells were incubated and subsequently transferred to a microplate reader and the absorbance values were determined (Versamax® Molecular Devices, software SoftMax Pro Enterprise (version 4.7.1)) at 450 nm (reference wavelength 690 nm). A decrease in number of living cells results in a decrease in the overall activity of mitochondrial dehydrogenases in the sample. This decrease directly correlates to the amount of orange formazan formed, as monitored by the absorbance. The relative absorbance (=viability) as compared to the solvent control is calculated using this formula: […]
To calculate the concentration of toxicant required to reduce the relative absorbance to 50% of the solvent control (XTT50) the following formula is used:
[formula] • a) Conc.>50=max. measured concentration with the % of solvent control >50% • b) Conc.<50=min. measured concentration with the % of solvent control <50% • c) %>50=relative absorbance at a) in % • d) %<50=relative absorbance at b) in %
The lower the XTT50 value, the higher is the cytotoxic potential of the test item.

## CCCCCCCCCCCCOS(=O)(=O)[O-].[Na+] [SDS, Sodium dodecyl sulfate]
  viability at 3.1 μg/mL: 96.9%
  viability at 6.3 μg/mL: 97.2%
  viability at 12.5 μg/mL: 99.9%
  viability at 25 μg/mL: 91.7%
  viability at 50 μg/mL: 85%
  viability at 100 μg/mL: 5.8%
  viability at 125 μg/mL: 1.63%
  viability at 250 μg/mL: 0.16%
